This experiment concerns the target T1, Recombinant human HSP90a (Homo sapiens, UniProt P07900).
T1 construct: host or cells: E. coli
In words: HSP90 radioligand filter binding test ([3H]17AAG competition). The note with it: [3H]17AAG 0.08 μM, HSP90 1.5 μg/assay, 22° C., 30 min; read-out: IC50 (HSP90 inhibition). An excerpt:
Test Method for the Measurement of HSP90 Inhibitors
The binding of geldanamycin or 17-allylamino-17-demethoxygeldanamycin (17AAG) to HSP90 and competitive inhibition thereof can be utilised in order to determine the inhibitory activity of the compounds according to the invention (Carreras et al. 2003, Chiosis et al. 2002).
In the specific case, a radioligand filter binding test is used. The radioligand used here is tritium-labelled 17-allylaminogeldanamycin, [3H]17AAG. This filter binding test allows a targeted search for inhibitors which interfere with the ATP binding site.
Recombinant human HSP90a (E. coli expressed, 95% purity);
[3H]17AAG (17-allylaminogeldanamycin, [allylamino-2,3-^3H. Specific activity: 1.11×10^12 Bq/mmol (Moravek, MT-1717);
HEPES filter buffer (50 mM HEPES, pH 7.0, 5 mM MgCl2, BSA 0.01%)
Multiscreen FB (1 μm) filter plate (Millipore, MAFBNOB 50).
The 96-well microtitre filter plates are firstly irrigated and coated with 0.1% of polyethylenimine.
The test is carried out under the following conditions:
Reaction temperature 22° C.
Reaction time: 30 min., shaking at 800 rpm
50 mM HEPES HCl, pH 7.0, 5 mM MgCl2, 0.01% (w/v) of BSA
At the end of the reaction, the supernatant in the filter plate is removed by suction with the aid of a vacuum manifold (Multiscreen Separation System, Millipore), and the filter is washed twice.
The filter plates are then measured in a beta counter (Microbeta, Wallac) with scintillator (Microscint 20, Packard).
“% of control” is determined from the “counts per minutes” values, and the IC-50 value of a compound is calculated therefrom.
In general, IC50 refers to the concentration at which inhibition is half-maximal. For the compound `Nc1nc(C(=O)N2Cc3ccccc3C2)c2cc(-c3ccccc3S(=O)(=O)N3CC[C@H](F)C3)ccc2n1` [Compound A67, {2-Amino-6-[2-((S)-3-fluoropyrrolidine-1-sulfonyl)phenyl]quinazolin-4-yl}-(1,3-dihydroisoindol-2-yl)methanone], the IC50 was in the range of 10 to 1000 nM.

On to `Nc1nc(C(=O)N2Cc3ccccc3C2)c2cc(-c3ccccc3S(=O)(=O)NC3CNC3)ccc2n1` [Compound A26, 2-[2-amino-4-(1,3-dihydroisoindole-2-carbonyl)quinazolin-6-yl]-N-azetidin-3-ylbenzenesulfonamide], for which the IC50 fell in the range of 10 to 1000 nM.

In the case of `CN(C(=O)c1ccccc1-c1ccc2nc(N)nc(C(=O)N3Cc4ccccc4C3)c2c1)C(C)(C)C` [Compound A56, 2-[2-Amino-4-(1,3-dihydroisoindole-2-carbonyl)quinazolin-6-yl]-N-tert-butyl-N-methylbenzamide], the IC50 fell in the range of 10 to 1000 nM.

In the case of `Nc1nc(C(=O)N2Cc3ccccc3C2)c2cc(-c3ccccc3S(=O)(=O)N3CC(N)C3)ccc2n1` [Compound A29, {2-amino-6-[2-(3-aminoazetidine-1-sulfonyl)phenyl]quinazolin-4-yl}-(1,3-dihydroisoindol-2-yl)methanone], the IC50 lay within 10 to 1000 nM.

On to `Nc1nc(C(=O)N2Cc3ccccc3C2)c2cc(-c3ccccc3S(=O)(=O)N3CCC(N)C3)ccc2n1` (centres unmarked) [Compound A33, {2-amino-6-[2-(3-aminopyrrolidine-1-sulfonyl)phenyl]quinazolin-4-yl}-(1,3-dihydroisoindol-2-yl)methanone], for which the IC50 was in the range of 10 to 1000 nM.

With `C[N+]1([O-])CCN(S(=O)(=O)c2ccccc2-c2ccc3nc(N)nc(C(=O)N4Cc5ccccc5C4)c3c2)CC1` [Compound A7], the IC50 lay within 10 to 1000 nM.

`Nc1nc(C(=O)N2Cc3ccccc3C2)c2cc(-c3ccccc3S(=O)(=O)N3CCCC3)ccc2n1` [Compound A32, {2-Amino-6-[2-(pyrrolidine-1-sulfonyl)phenyl]quinazolin-4-yl}-(1,3-dihydroisoindol-2-yl)methanone]: the IC50 lay within 10 to 1000 nM.

`CN(CCO)C(=O)c1ccccc1-c1ccc2nc(N)nc(C(=O)N3Cc4ccccc4C3)c2c1` [Compound A22]: the IC50 was 10 to 1000 nM.

As to `Nc1nc(C(=O)N2Cc3ccccc3C2)c2cc(-c3ccccc3S(=O)(=O)N3CCC(O)CC3)ccc2n1` [Compound A9], the IC50 is 10 to 1000 nM.

On to `Nc1nc(C(=O)N2Cc3ccccc3C2)c2cc(-c3ccccc3S(=O)(=O)NCCO)ccc2n1` [Compound A11, 2-[2-Amino-4-(1,3-dihydroisoindole-2-carbonyl)quinazolin-6-yl]-N-(2-hydroxyethyl)benzenesulfonamide], for which the IC50 fell in the range of 10 to 1000 nM.

`Nc1nc(C(=O)N2Cc3ccccc3C2)c2cc(-c3ccccc3C(=O)NC3CCC3)ccc2n1` [Compound A46, 2-[2-Amino-4-(1,3-dihydroisoindole-2-carbonyl)quinazolin-6-yl]-N-cyclobutylbenzamide]: the IC50 is 10 to 1000 nM.

For the compound `C[C@H]1CCCN1C(=O)c1ccccc1-c1ccc2nc(N)nc(C(=O)N3Cc4ccccc4C3)c2c1` [Compound A72, {2-Amino-6-[2-((S)-2-methylpyrrolidine-1-carbonyl)phenyl]quinazolin-4-yl}-(1,3-dihydroisoindol-2-yl)methanone], the IC50 fell in the range of 10 to 1000 nM.

For the compound `Cc1nccn1S(=O)(=O)c1ccccc1-c1ccc2nc(N)nc(C(=O)N3Cc4ccccc4C3)c2c1` [Compound A28, {2-Amino-6-[2-(2-methylimidazole-1-sulfonyl)phenyl]quinazolin-4-yl}-(1,3-dihydroisoindol-2-yl)methanone], the IC50 fell in the range of 10 to 1000 nM.

On to `CCNC(=O)c1ccccc1-c1ccc2nc(N)nc(C(=O)N3Cc4ccccc4C3)c2c1` [Compound A41, 2-[2-Amino-4-(1,3-dihydroisoindole-2-carbonyl)quinazolin-6-yl]-N-ethylbenzamide], for which the IC50 lay within 10 to 1000 nM.

Consider `CN(C1CC1)S(=O)(=O)c1ccccc1-c1ccc2nc(N)nc(C(=O)N3Cc4ccccc4C3)c2c1` [Compound A65, 2-[2-amino-4-(1,3-dihydroisoindole-2-carbonyl)quinazolin-6-yl]-N-cyclopropyl-N-methylbenzenesulfonamide], for which the IC50 lay in the range of 10 to 1000 nM.

As to `Nc1nc(C(=O)N2Cc3ccccc3C2)c2cc(-c3ccccc3S(N)(=O)=O)ccc2n1` [Compound A2, 2-[2-amino-4-(1,3-dihydroisoindole-2-carbonyl)quinazolin-6-yl]-benzenesulfonamide], the IC50 was 10 to 1000 nM.

With `CCN(CCO)C(=O)c1cc(F)c(F)cc1-c1ccc2nc(N)nc(C(=O)N3Cc4ccccc4C3)c2c1` [Compound A75, 2-[2-Amino-4-(1,3-dihydroisoindole-2-carbonyl)quinazolin-6-yl]-N-ethyl-4,5-difluoro-N-(2-hydroxyethyl)benzamide], the half-maximal inhibitory concentration (IC50) fell in the range of 10 to 1000 nM.

In the case of `CC(C)(C)NS(=O)(=O)c1ccccc1-c1ccc2nc(N)nc(C(=O)N3Cc4ccccc4C3)c2c1` [Compound A1, 2-[2-Amino-4-(1,3-dihydroisoindole-2-carbonyl)quinazolin-6-yl]-N-tert-butylbenzenesulfonamide], the concentration for half-maximal inhibition (IC50) fell in the range of 10 to 1000 nM.

As to `CCN(CCN(C)C)C(=O)c1cc(F)c(F)cc1-c1ccc2nc(N)nc(C(=O)N3Cc4ccccc4C3)c2c1` [Compound A76, 2-[2-Amino-4-(1,3-dihydroisoindole-2-carbonyl)quinazolin-6-yl]-N-(2-dimethylaminoethyl)-N-ethyl-4,5-difluorobenzamide], the IC50 was 10 to 1000 nM.

On to `CC1CCC(C)N1S(=O)(=O)c1ccccc1-c1ccc2nc(N)nc(C(=O)N3Cc4ccccc4C3)c2c1` (centres unmarked) [Compound A64, {2-amino-6-[2-(2,5-dimethylpyrrolidine-1-sulfonyl)phenyl]-quinazolin-4-yl}-(1,3-dihydroisoindol-2-yl)methanone], for which the IC50 lay within 10 to 1000 nM.

On to `C[C@@H]1CCCN1S(=O)(=O)c1ccccc1-c1ccc2nc(N)nc(C(=O)N3Cc4ccccc4C3)c2c1` [Compound A66, {2-Amino-6-[2-((R)-2-methylpyrrolidine-1-sulfonyl)phenyl]quinazolin-4-yl}-(1,3-dihydroisoindol-2-yl)methanone], for which the IC50 lay in the range of 10 to 1000 nM.

For `CN(C)C(=O)c1ccccc1-c1ccc2nc(N)nc(C(=O)N3Cc4ccccc4C3)c2c1` [Compound A38], the IC50 is 10 to 1000 nM.

In the case of `CCN(CCO)S(=O)(=O)c1ccc(F)cc1-c1ccc2nc(N)nc(C(=O)N3Cc4ccccc4C3)c2c1` [Compound A82], the IC50 fell in the range of 10 to 1000 nM.

(Values after patent US8546565B2, “Quinazolinamide derivatives” (Merck Patent Gesellschaft, priority 2008, dated 2013).)
